Measurements from patent US5530157A, “Anti-inflammatory benzoic acid derivatives” (Scios Nova Inc., priority 1995, dated 1996).

What follows are compounds tested on human umbilical vein endothelial cells (assay: INF-γ HUVEC assay: adherence of PMN to human umbilical vein endothelial cells). Conditions: HUVECs with INF-γ 1 unit/mL 20 hrs, PMN activated with 50 ng/mL TNF, read-out: IC50 to inhibit adhesion, IFN-γ HUVECS.
Format: cell-based
Description: (§1) Several in vitro assays were employed to determine the ability of compounds of the invention to function as anti-inflammatory agents. One group of assays measured the ability of the compounds to inhibit adherence of polymorphonuclear neutrophils to serum coated wells (in the presence of either TNF-α or PAF) or to human umbilical vein endothelial cells (in the presence of INF-γ). Another group of assays measured the ability of the compounds to inhibit the release of elastase or superoxide from activated neutrophils. These assays were performed in the following manner.
(§2) Isolation of PMN: Blood was drawn into syringes containing heparin (1 U/mL), from human volunteers (free of any medication for at least 48 hrs). 30 mL of blood was layered over a gradient of 10 mL 1.077 g/mL Histpaque (Sigma, St. Louis, Mo.), and centrifuged at room temperature, 400×g for 20 min. All subsequent manipulations were carried out at room temperature, with endotoxin free reagents, and using polypropylene pipettes and tubes, to prevent activation of the PMN. The pinkish PMN layer immediately above the RBC was collected and washed 2× with Hank's buffered salt solution with calcium and magnesium, 0.2% glucose, and 10 mM HEPES, pH 7.2 (HBSS++) by centrifugation at 400×g for 10 min. Pellets were suspended in 8 mL 0.9% NaCl, and RBC lysed by the addition of 24 mL water for 40 sec, followed by the addition of 8 mL of 3.6% NaCl. After centrifugation at 200×g for 8 min, RBC ghosts were aspirated from the top of the PMN pellet, and cells washed with HBSS++. PMN adherence to protein substrates: 96 well tissue culture plates were coated with 10% pooled human serum (North American Biological,;, Miami, Fla.) in phosphate buffered saline (PBS) for 1 hr at 37° C., followed by washing 3× with PBS. Test compounds were prepared in DMSO as 100× stocks. PMN (4×10^6 /mL) were preincubated with test compounds for 10 min at 37° C. in serum-coated wells. Tumor necrosis factor (TNF-α) was added to 3 nM or platelet aggregation facor (PAF) to 1 μM, and adherence was carried out for 20 or 10 min, respectively. Nonadherent cells were aspirated, and wells washed two times with warm PBS with calcium and magnesium, with blotting of the inverted plate following each aspiration. Adherent PMN were quantitated using a BCA protein assay (Pierce, Rockford, Ill.).
INF-γHUVEC Assay. Primary human umbilical vein endothelial cells (HUVECs) from Clonetics Corp. (San Diego, Calif.) were seeded at 20,000 cells per wall in a 96 well tissue culture plate that was coated with fibronectin, for 45 min and then twice rinsed with phosphate buffered saline. To the culture media (M199, 80%; FBS, 20%; […] endothelial cell growth factor (Maciag et all, Proc. Natl. Acad. Sci. USA (1979) 76(11):5674-5678), 0.1 mg/mL heparin; 5% CO2; 37° C.) was added INF-γ (R&D Systems) at 1 unit/mL for 20 hrs. Isolated PMNs were loaded with the fluorescent dye BCECF AM (Molecular Probes) by incubating 1×10^7 cells/mL in HBSS with 4 μM dye for 30 min at 37° C. The PMNs were incubated with test compound for 10 min at 37° C., then activated with 50 ng/mL TNF and immediately added to the HUVECs which had been rinsed twice with HBSS+1% human serum. The co-culture plate was incubated at 37° C. for 20 min followed by gentle washing (twice) with HBSS+1% human serum. The extent of adherence was assessed by measuring the amount of fluorescence (485-535 nm filter) in each well with a fluorescence plate reader (Idexx).

Compound | IC50 [µM]
O=C(O)c1ccc(/C=C/c2ccccc2-c2ccc3ccccc3c2)cc1 [NPC 18812, 4-{2-[2-(2-naphthyl)phenyl]-(E)-ethenyl}benzoic acid] | 14.5
O=C(O)c1ccc(/C=C/c2ccccc2-c2ccc(Cl)c(Cl)c2)cc1 [NPC 18818, 4-{2-[2-(3,4-dichlorophenyl)phenyl]-(E)-ethenyl] benzoic acid] | 30

These compounds were tested on polymorphonuclear neutrophils (assay: Adherence of PMN to serum coated wells, PAF). Conditions: Homo sapiens, Polymorphonuclear neutrophil, 10 min, PAF 1 μM, read-out: IC50 to inhibit adhesion, PAF serum.
Format: cell-based
Description: as §1, §2

Compound | IC50 [nM]
O=C(O)c1ccc(/C=C/c2ccccc2-c2ccc3ccccc3c2)cc1 [NPC 18812, 4-{2-[2-(2-naphthyl)phenyl]-(E)-ethenyl}benzoic acid] | 1170
O=C(O)c1ccc(/C=C/c2ccccc2-c2ccc(Cl)c(Cl)c2)cc1 [NPC 18818, 4-{2-[2-(3,4-dichlorophenyl)phenyl]-(E)-ethenyl] benzoic acid] | 410
O=C(O)c1ccc(/C=C/c2ccccc2-c2cc3ccccc3o2)cc1 [NPC 18915, 4-{2-[2-(2-benzofuranyl)phenyl]-(E)-ethenyl} benzoic acid] | 640

Each compound was assayed on neutrophils (assay: Elastase release from neutrophils, PAF). Conditions: Homo sapiens, Neutrophil; PAF 20 nM, cytochalasin b; read-out: IC50 to inhibit elastase release, PAF/ER.
Format: cell-based
Description: as §1
(§3) Elastase release. Neutrophils (5×10^6 /ml in HBSS) were preincubated for 5 min at 37° C. with cytochalasin b (5 μg/ml). Experiments were performed in microtubes (96 per rack) to which were added the cell suspension, test compound (50 nM-500 μM), and one of several activators (fMLP, 200 nM, C5a, 24 nM; PAF, 20nM). After incubation (30 min, 37° C.) the tubes were centrifuged (1 min, 1500 rpm) and the supernatants assayed for elastase activity according to the following protocol:
(§4) Specifically, 10 μl of purified human neutrophil elastase standard or of sample was added to 70 μl or 0.1M Tris pH 7.5, 0.5% Brij detergent and 10 μl or 5 mM elastase substrate (methoxysuccinyl-alanyl-alanyl-prolyl-valyl paranitroanilide) in a 96 well microliter plate. Plates were indubated for 60 min at 37° C. and absorbance was read at 410 nm on a microplate reader. Elastase activity was quantitated relative to standards.

Compound | IC50 [µM]
O=C(O)c1ccc(/C=C/c2ccccc2-c2ccc3ccccc3c2)cc1 [NPC 18812, 4-{2-[2-(2-naphthyl)phenyl]-(E)-ethenyl}benzoic acid] | 7.6
O=C(O)c1ccc(/C=C/c2ccccc2-c2ccc(Cl)c(Cl)c2)cc1 [NPC 18818, 4-{2-[2-(3,4-dichlorophenyl)phenyl]-(E)-ethenyl] benzoic acid] | 0.81

These compounds were tested on neutrophil accumulation in the cutaneous Reverse Passive Arthus reaction (assay: Neutrophil accumulation in the cutaneous Reverse Passive Arthus reaction in rats). Conditions: Neutrophil, ip, 4 h; rat, i.p., Reverse Passive Arthus; read-out: ID50 (the source's name).
Format: in vivo, Male Sprague Dawley rats
Protocol: (§5) Two in vivo models of inflammation were used to assess the anti-inflammatory activity of compounds of the invention. One model measures neutrophil accumulation in thioglycollate-induced peritonitis in mice. The other measures neutrophil accumulation in the cutaneous Reverse Passive Arthus reaction in rats. These assays were carried out as follows.
Male Sprague Dawley rats were treated with test compounds by intraperitoneal injection of 1.4 mg/kg in 1% Tween, pH 9.0 vehicle. After 1 hr, animals were lightly anesthetized with 2% isoflurane, v/v, injected by intravenous route with 1 ml of 5 mg/ml human serum albumin, immediately follwed by intracutaneous administration of 75 μl of a solution of 4 mg/ml of goat anti-human serum albumin. Animals were anesthetized 4 hrs after antigen-antibody treatment. Punch biopsies of the dorsal injection sites were performed with one biopsy weighed for wet/dry weight ratio determination. The remaining two skin biopsies were used for measuring myeloperoxidase content and were minced, weighed and homogenized for 30 sec in 20 mM phosphate buffer (pH 7.4). After centrifugation (20 min, 6000×g, 4° C.) the supernatant was decanted and the pellet resuspended in 50 mM phosphate buffer (pH 6.0) containing 0.5% hexadecyltrimethylammonium bromide. After three freeze/thaw cycles, the pellet was centrifuged (15 min, 20000×g, 4° C.) and 100 μl aliquots were added to 2.9 ml of assay buffer (50 mM phosphate buffer, 0.167 mg/ml o-dianiside, 0.05% H2 O2, pH 6.0). Absorbance at 460 nm was measured at 15 min. Results shown in Table IV were calculated as absorbance units/g dry weight.

Compound | ED50 [mg/kg]
O=C(O)c1ccc(/C=C/c2ccccc2-c2ccc3ccccc3c2)cc1 [NPC 18812, 4-{2-[2-(2-naphthyl)phenyl]-(E)-ethenyl}benzoic acid] | 0.5

Same assay, conditions: rat, i.p., 1.4 mg/kg, n = 4

Compound | Reverse Passive Arthus % Inhibition [%]
O=C(O)c1ccc(/C=C/c2ccccc2-c2ccc3ccccc3c2)cc1 [NPC 18812, 4-{2-[2-(2-naphthyl)phenyl]-(E)-ethenyl}benzoic acid] | 29
O=C(O)c1ccc(/C=C/c2ccccc2-c2ccc(Cl)c(Cl)c2)cc1 [NPC 18818, 4-{2-[2-(3,4-dichlorophenyl)phenyl]-(E)-ethenyl] benzoic acid] | 8

What follows are compounds tested on neutrophils (assay: Superoxide production by PMN, fMLP). Conditions: Homo sapiens, Neutrophil; fMLP 300 nM, TNF preincubation; read-out: IC50 to inhibit superoxide production, fMLP/O2.
Format: cell-based
Description: as §1
(§6) Superoxide production. Superoxide production by PMN was measured as the superoxide dismutase (SOD)-inhibitable reduction of ferricytochrome c. […] Therefore, subsequent experiments were performed in the presence of cytochrome c only. In all cases, experiments were carried out in 96 well plates. Before the addition of cells, plates were coated by incubating each well with 200 μl of 10% human serum for 1 h in 37° C. Plates were then washed several times with PBS containing 10 mM CaCl2 and MgCl2. Neutrophils, resuspended in Hank's balanced salt solution (HBSS) to a final concentration of 4×10^6 cells/ml, were preincubated with TNF (10 ng/ml) for 10 min at 37° C. in the presence of cytochrome c (75 μm). Experiments were then performed with 100 μl of this cell suspension added to each well, followed by the addition of 10 μl of an aqueous dilution of test compound (50 nm-[…]). Immediately after the addition of test compound, a 10 μl aliquot of activators (fMLP, 300 nM; PAF, 20 nM; C5a, 5 μg/ml) was added to each well. Plates were immediately transferred to a preheated Thermomax kinetic microplate reader and the change in absorbance at […] was recorded over a 3 min period.

Compound | IC50 [nM]
O=C(O)c1ccc(/C=C/c2ccccc2-c2ccc(Cl)c(Cl)c2)cc1 [NPC 18818, 4-{2-[2-(3,4-dichlorophenyl)phenyl]-(E)-ethenyl] benzoic acid] | 150

The compounds below were run on neutrophils (assay: Superoxide production by PMN, PAF). Conditions: Homo sapiens, Neutrophil; PAF 20 nM, TNF preincubation; read-out: IC50 to inhibit superoxide production, PAF/O2.
Format: cell-based
Description: as §1, §6

Compound | IC50 [nM]
O=C(O)c1ccc(/C=C/c2ccccc2-c2ccc(Cl)c(Cl)c2)cc1 [NPC 18818, 4-{2-[2-(3,4-dichlorophenyl)phenyl]-(E)-ethenyl] benzoic acid] | 300

What follows are compounds tested on polymorphonuclear neutrophils (assay: Adherence of PMN to serum coated wells, TNF-α). Conditions: Homo sapiens, Polymorphonuclear neutrophil, 20 min, TNF-α 3 nM, read-out: IC50 to inhibit adhesion, TNF-α serum.
Format: cell-based
Description: as §1, §2

Compound | IC50 [nM]
O=C(O)c1ccc(/C=C/c2ccccc2-c2ccc3ccccc3c2)cc1 [NPC 18812, 4-{2-[2-(2-naphthyl)phenyl]-(E)-ethenyl}benzoic acid] | 3600
O=C(O)c1ccc(/C=C/c2ccccc2-c2ccc(Cl)c(Cl)c2)cc1 [NPC 18818, 4-{2-[2-(3,4-dichlorophenyl)phenyl]-(E)-ethenyl] benzoic acid] | 1800

The compounds below were run on neutrophils (assay: Elastase release from neutrophils, fMLP). Conditions: Homo sapiens, Neutrophil; fMLP 200 nM, cytochalasin b; read-out: IC50 to inhibit elastase release, fMLP/ER.
Format: cell-based
Description: as §1, §3, §4

Compound | IC50 [nM]
O=C(O)c1ccc(/C=C/c2ccccc2-c2ccc(Cl)c(Cl)c2)cc1 [NPC 18818, 4-{2-[2-(3,4-dichlorophenyl)phenyl]-(E)-ethenyl] benzoic acid] | 1200

What follows are compounds tested on neutrophil accumulation in thioglycollate-induced peritonitis (assay: Neutrophil accumulation in thioglycollate-induced peritonitis in the mouse). Conditions: Neutrophil, iv; mouse, i.v., thioglycollate-induced peritonitis, 4 hrs; read-out: ED50.
Format: in vivo, Male CF-1 mice
Protocol: as §5
Male CF-1 mice were pretreated with individual test compound (4-6 mice per compound) 10 min prior to thioglycollate treatment. Test compounds at various doses, solubilized in 1% Tween, pH 9.0, were injected into the tail vein. Thioglycollate (4% Brewer's thioglycollate broth in water) was administered intraperitoneally in 1 ml volume. Peritoneal lavages, performed 4 hrs following thioglycollate treatment, involved injecting 5 ml of Dulbecco's phosphate buffered saline with 0.1% bovine serum albumin and 10 units/ml heparin into the peritoneal cavity, massaging the peritoneum, and then removing fluid through peritoneal aspiration. The lavage fluid was centrifuged, red blood cells lysed with water, cells were resuspended in Hank's balanced salt solution, and leukocytes were counted with a modified Neubauer hemacytometer. Leukocyte preparations (cytospin slides) were differentially stained with a Giemsa stain. Neutrophil accumulation expressed as a percent of control was calculated after the subtraction of baseline neutrophils from all treatement groups (see Table III).

Compound | ED50 [mg/kg]
O=C(O)c1ccc(/C=C/c2ccccc2-c2ccc3ccccc3c2)cc1 [NPC 18812, 4-{2-[2-(2-naphthyl)phenyl]-(E)-ethenyl}benzoic acid] | 7
O=C(O)c1ccc(/C=C/c2ccccc2-c2ccc(Cl)c(Cl)c2)cc1 [NPC 18818, 4-{2-[2-(3,4-dichlorophenyl)phenyl]-(E)-ethenyl] benzoic acid] | < 30

Same assay, conditions: mouse, i.v., 3 mg/kg, 4 hrs

Compound | % Inhibition of neutrophil accumulation [%]
O=C(O)c1ccc(/C=C/c2ccccc2-c2ccc3ccccc3c2)cc1 [NPC 18812, 4-{2-[2-(2-naphthyl)phenyl]-(E)-ethenyl}benzoic acid] | 12
O=C(O)c1ccc(/C=C/c2ccccc2-c2ccc(Cl)c(Cl)c2)cc1 [NPC 18818, 4-{2-[2-(3,4-dichlorophenyl)phenyl]-(E)-ethenyl] benzoic acid] | 35

Same assay, conditions: mouse, i.v., 10 mg/kg, 4 hrs

Compound | % Inhibition of neutrophil accumulation [%]
O=C(O)c1ccc(/C=C/c2ccccc2-c2ccc3ccccc3c2)cc1 [NPC 18812, 4-{2-[2-(2-naphthyl)phenyl]-(E)-ethenyl}benzoic acid] | 50
O=C(O)c1ccc(/C=C/c2ccccc2-c2ccc(Cl)c(Cl)c2)cc1 [NPC 18818, 4-{2-[2-(3,4-dichlorophenyl)phenyl]-(E)-ethenyl] benzoic acid] | 34

Same assay, conditions: mouse, i.v., 30 mg/kg, 4 hrs

Compound | % Inhibition of neutrophil accumulation [%]
O=C(O)c1ccc(/C=C/c2ccccc2-c2ccc3ccccc3c2)cc1 [NPC 18812, 4-{2-[2-(2-naphthyl)phenyl]-(E)-ethenyl}benzoic acid] | 71
O=C(O)c1ccc(/C=C/c2ccccc2-c2ccc(Cl)c(Cl)c2)cc1 [NPC 18818, 4-{2-[2-(3,4-dichlorophenyl)phenyl]-(E)-ethenyl] benzoic acid] | 52

Same assay, conditions: mouse, i.v., 60 mg/kg, 4 hrs

Compound | % Inhibition of neutrophil accumulation [%]
O=C(O)c1ccc(/C=C/c2ccccc2-c2ccc3ccccc3c2)cc1 [NPC 18812, 4-{2-[2-(2-naphthyl)phenyl]-(E)-ethenyl}benzoic acid] | 94
